The values below come from patent US4709079A, “Polyprenyl compounds, process for the production thereof and medicines containing same” (priority 1981, dated 1987).

A word on the LD50: it is the dose expected to kill half of the subjects tested. A word on the ED50: it is the dose that gives a 50% effect, or the effect in half of the subjects.

Data set [1] has as its system carrageenan-induced edema. Kind of data set: carrageenan-induced edema controlling test, sole edema method (Experiments 1 and 2). The settings on record: for Control rate (carrageenan-induced edema): groups of 8 rats; for ED50: Rattus norvegicus, po, read-out: Median effective dose for carrageenan-induced edema ED50. Type of data set: in vivo, male S.D. rats. The method, then:
Effects of controlling carrageenan-induced edema were examined by the sole edema method, see Winter et al.; Pro. […] Exp. Biol. Med., 111, 544 (1962), wherein carrageenan was used as an inflaming agent and male S.D. rats weighing 150-180 g were used as the test animals (each group comprised 5 rats).
The test compound was dissolved in sesame oil and the solution was administered perorally to the rats 6 hours before the administration of the inflaming agent. The volumes of the hind leg soles were measured 3 hours after the administration of the inflaming agent. […] [formula] wherein a is the volume of the hind leg sole before the edema induction and b is the corresponding value after the edema induction. [formula] wherein c represents the average edema rate of the control group and d represents the edema rate of each animal to which the test compound was given.
Carrageenan-induced edema control rates were determined according to formula (2) in the same manner as in Experiment 1 except that each group comprised 8 rats.
(Carrageenan injected into the paw causes an acute inflammation.)

Data set [2] in a line: continuous peroral administration for one week. Format: in vivo, SD rats. The settings on record: 50 mg/kg per day and 200 mg/kg per day continuously for one week.
The nature of another data set: in vivo. Particulars: rat, po, peroral, 20% solution in sesame oil.
For data set [3], the system named is adjuvant-induced arthritis. In words: adjuvant-induced arthritis controlling test. Type of data set: in vivo, F-344 rats. Particulars: po; for ED50: Rattus norvegicus, 456 h, read-out: Median effective dose for adjuvant-induced arthritis ED50. As to the method:
Arthritis was induced in F-344 rates (6 weeks) (Japanese Charles Liver) according to the method of Winder, C. V., et al; Arthritis Rheum. 12, 472-482 (1969) and the controlling effects were examined. 0.05 ml. of a suspension (6 mg/ml) of Mycobacterium butyricum (Difco) in liquid paraffin was in]ected in the sole of the right leg of each rat to induce arthritis. […] The former was dissolved in sesame oil and the latter was suspended in acacia. The administration of the test compounds was started on the same day as the adjuvant injection. The test compounds were administered perorally every day for 19 days.

The next data set deals with gastric membranes. In words: effects on gastric membranes of normal rats (ulceration). Format: in vivo, Wistar ST rats. The text has this: Four hours thereafter, the ulceration conditions in the gastric membranes were examined.
The conditions of data set [4]: comparison value for Indomethacin; species, sex and source not given; cited from earlier work.
In data set [5] the test system is cold restraint stress-induced ulcer, gastric membranes. In words: worsening of cold restraint stress-induced ulcer. Format: in vivo, Wistar rats. As to the method:
Cold restraint stress was applied to Wistar rats (7 weeks old) by a conventional method. […] Two hours after the application of stress, the length of ulcer (ulcer index) in the gastric membranes was measured.

Where [6] appears, read: peroral, 6 hours before inflaming agent, measured 3 hours after, groups of 5 rats.

Where two headings read alike, the source gives them in different places.

Turning to `CC(C)=CCCC(C)=CCCC(C)=CCOC(=O)C(C)c1ccc(CC(C)C)cc1` (stereo not shown) [Compound B, 2-(4-isobutylphenyl)propionic acid 3,7,11-trimethyl-2,6,10-dodecatrienyl ester], the “Control rate (carrageenan-induced edema)” value in data set [1] (dose 60 mg/kg, peroral) is 30%.
As for `COc1ccc2c(c1)c(CC(=O)OCC=C(C)CCC=C(C)CCC=C(C)CCC=C(C)C)c(C)n2C(=O)c1ccc(Cl)cc1` [Compound D, 1-(p-Chlorobenzoyl)-2-methyl-5-methoxy-3-indolylacetic acid 3,7,11,15-tetramethyl-2,6,10,14-hexadecatetraenyl ester], the “Control rate (carrageenan-induced edema)” value in data set [1] (dose 9 mg/kg, peroral) turned out to be 22%; in data set [1] (dose 18 mg/kg, peroral) it was 22%. Also, the health problem entry in data set [2] is “no health problem was observed”. Moreover, the LD50 in the data set “in vivo” (female SD rats, read-out: LD50 female) lay in the range of 1530 to 3160 mg/kg; in the data set “in vivo” (male SD rats, read-out: LD50 male), 2000 to 2520 mg/kg.
For the molecule `COc1ccc2c(c1)c(CC(=O)OCC=C(C)CCC=C(C)CCC=C(C)C)c(C)n2C(=O)c1ccc(Cl)cc1` [Compound C, 1-(p-Chlorobenzoyl)-2-methyl-5-methoxy-3-indolylacetic acid 3,7,11-trimethyl-2,6,10-dodecatrienyl ester], the ED50 in data set [1] (setting [6]) was found to be 6.5 mg/kg; in data set [3] (peroral, every day for 19 days), 3.6 mg/kg. Moreover, the “Control rate (carrageenan-induced edema)” value is listed as 40% in data set [1] (dose 9 mg/kg, peroral) and 42% in data set [1] (dose 18 mg/kg, peroral). For the same molecule, in data set [2], the health problem entry was “no health problem was observed”. Besides, the “Number of ulcerated rats” value with gastric membranes (dose 153 mg/kg, peroral, 4 hours, fasted normal rats) was 0/5.
As to `CC(=O)Oc1ccccc1C(=O)OCC=C(C)CCC=C(C)C` [Compound E, Acetylsalicylic acid 3,7-dimethyl-2,6-octadienyl ester], the “Control rate (carrageenan-induced edema)” value in data set [1] (dose 400 mg/kg, peroral) turned out to be 52%.
In the case of `COc1ccc2c(c1)c(CC(=O)O)c(C)n2C(=O)c1ccc(Cl)cc1` [Indomethacin], the LD50 in data set [4] is 18 mg/kg. The figures for the ED50 in data set [1] (3 h) and in data set [3] were 2.9 mg/kg and 1.5 mg/kg, respectively. Also, in data set [1] (dose 9 mg/kg, peroral), the “Control rate (carrageenan-induced edema)” value was found to be 38%. Moreover, the “LD50/ED50 ratio in the adjuvant-induced arthritis test” value in data set [3] (rat, in vivo) was 14-15. Besides, the “Ulcer index (mean ± S.E.)” value with gastric membranes (dose 20 mg/kg, peroral, 4 hours, fasted normal rats) was found to be 18.0 ± 3.2. Also, in the data set on gastric membranes (rat, in vivo, 20 mg/kg), the “Number of ulcerated rats” value is recorded as 5/5. In addition, in data set [5] (dose 20.0 mg/kg, peroral, two hours after application of stress), the “Ulcer index (Mean ± S.E.), length of ulcer” value is 36.5 ± 7.3. In addition, in data set [5] (rat, in vivo), the “macroscopic observation of gastric ulcer” value is “linear ulcer accompanied with copious bleeding was clearly recognized”. Also, in data set [5] (rat, in vivo), the stress-induced ulcer result is listed as “increased significantly”.
`CC(C)=CCCC(C)=CCCC(C)=CCCC(C)=CCOC(=O)Cc1ccccc1Nc1c(Cl)cccc1Cl` [Compound A, 2-[(2,6-Dichlorophenyl)amino]phenylacetic acid 3,7,11,15-tetramethyl-2,6,10,14-hexadecatetraenyl ester]: in data set [1] (dose 18 mg/kg, peroral), the “Control rate (carrageenan-induced edema)” value is on record as 34%.
In the case of `CC(C)Cc1ccc(C(C)C(=O)O)cc1` (stereo not shown) [Ibuprofen, reference compound], the ED50 in data set [1] (setting [6]) was 7.7 mg/kg.
